# Several values for one entry are separate records, joined by “and”; a condition that tells them apart may be missing. Equal entries are not always repeated.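 96-well plates; 48 h exposure; 5 concentrations. Endpoints by linear interpolation between flanking doses. Not reached: highest tested concentration assigned. GI50 is the concentration that inhibits growth by half. TGI is the concentration that stops growth completely.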
# Assays:
# Test in all cases: DTP human tumour cell line panel, 48 h
# [1] = test system: TK-10 renal
# [2] = test system: MDA-MB-231 breast
# [3] = test system: UACC-62 melanoma
# [4] = test system: CAKI-1 renal
# [5] = test system: DU-145 prostate
# [6] = test system: BT-549 breast
# [7] = test system: MALME-3M melanoma
# [8] = test system: SF-268 CNS
# [9] = test system: LXFL 529 NSCLC
# [10] = test system: DLD-1 colon
Compound,GI50 [1] [µM],TGI [1] [µM],GI50 [2] [µM],TGI [2],GI50 [3] [µM],TGI [3],GI50 [4] [µM],TGI [4],GI50 [5] [µM],TGI [5] [µM],GI50 [6] [µM],TGI [6],GI50 [7] [µM],TGI [7],GI50 [8] [µM],TGI [8],TGI [9] [µM],TGI [10] [µM]
OCc1ncc(-c2ccccc2)s1,> 100,> 100,> 100,> 100 µM,> 100,> 100 µM,> 100,> 100 µM,> 100,> 100,> 100,> 100 µM,> 100,> 100 µM,> 100,> 100 µM,–,–
Oc1cc2c(cc1C(c1ccc3c(c1)OCO3)N1CCN(C(c3ccc4c(c3)OCO4)c3cc4c(cc3O)OCO4)CC1)OCO2 (configuration not stated),–,43.8,–,29.1 µM,–,27.5 µM,–,47.9 µM,–,41.3,–,45.1 µM,–,38.9 µM,–,59.3 µM,–,–
CN(C)CCC(/C=C/c1ccccc1)=N\Nc1ccc(Cl)cc1,–,7.85,–,–,–,4.95 µM,–,–,–,–,–,–,–,26.2 µM,–,6.56 µM,9.26,11.1
CC(=O)OC1CC2(O)C(CCC3(C)C(c4ccc(=O)oc4)CCC32O)C2(C)CCC(OC3OC(CO)C(O)C(O)C3O)C=C12 (configuration not stated),0.0226,0.201,0.0684,0.396 µM,0.03,0.101 µM,0.0306,0.131 µM,0.0183,0.0594,0.0101,0.0661 µM,0.0245,0.0593 µM,0.0112,0.04 µM,–,–
O=C(O)c1nnsc1-c1csnn1,–,> 100,–,> 100 µM,–,> 100 µM,–,> 100 µM,–,> 100,–,> 100 µM,–,> 100 µM,–,> 100 µM,–,–
Clc1ccc(N/N=C(\c2ccccc2)c2ccccn2)nc1,0.338,> 100,0.237,> 65.8 µM and 48.4 µM,0.288,> 36.6 µM and 15.5 µM,0.172,2.3 µM and 16.7 µM,0.243,> 100,0.474,25 µM and 29.5 µM,0.0904,72.2 µM and 25.7 µM,0.324,21.1 µM and 4.08 µM,–,–
N=C1N=C(N)S/C1=C\c1ccc2ncccc2c1,> 25,> 25,> 25,> 25 µM,> 25,> 25 µM,> 25,> 25 µM,> 25,> 25,> 25,> 25 µM,> 25,> 25 µM,> 25,> 25 µM,–,–
CC1NCCc2c1[nH]c1cc(O)ccc21 (configuration not stated),–,> 100,–,–,–,> 100 µM,–,> 100 µM,–,–,–,–,–,> 100 µM,–,> 100 µM,> 100,> 100
Cc1ccccc1NC(=O)C(=O)CC(=O)C1CCOC1=O (configuration not stated),–,> 100,–,–,–,> 100 µM,–,> 100 µM,–,–,–,–,–,> 100 µM,–,> 100 µM,> 100,> 100
CCP(C)(C)=O,–,> 100,–,–,–,> 100 µM,–,> 100 µM,–,–,–,–,–,> 100 µM,–,> 100 µM,> 100,> 100
